Measurements reported in US10570122B2, “Compounds with anti-tumoral activity” (AB Science, priority 2015, dated 2020).

Columns and labels:
[1] = tested on: CALU6; assay: CellTiter-Blue cell-based survival/proliferation assay, CALU6; conditions: Homo sapiens, Calu-6; CALU6 lung tumor cell line, 48 h
Summary of the method: (§1)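 Tenfold compound dilutions (0–10 μM) were added to 1·10^4 cells/well. Plates incubated 48 h at 37 °C. CellTiter-Blue reduction (4 h, 37 °C) was read as fluorescence at 590 nm, background-corrected with a cell-free blank.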

[2] = tested on: U2OS; assay: CellTiter-Blue cell-based survival/proliferation assay, U2OS; conditions: Homo sapiens; U2OS osteosarcoma cell line, 48 h
Protocol: (§2) Cell-Based Proliferation Screening of Compounds
(§3) CellTiter-Blue cell-based survival/proliferation assay (Promega G8080) was performed on tumor cell lines. A total of 1·10^4 cells/well/50 μl were seeded in a 96-wells plate. Treatment was initiated by addition of a 2× drug solution of 1/10 serial dilutions ranging from 0 to 10 μM. Cells were grown for 48 h at 37° C. and then incubated with 10 μl/well of Promega CellTiter-Bleue reagent for 4 h at 37° C. The amount of resorufin dye formed was quantified by its fluorescence emission at 590 nm using a scanning multiwell spectrophotometer (OPTIMA, BMG labtech, France). A blank well without cells was used as a background control for the spectrophotometer.

[3] = tested on: OPM2; assay: CellTiter-Blue cell-based survival/proliferation assay, OPM2; conditions: Homo sapiens, OPM-2, Myeloma cell line OPM2, 48 h, read-out: Anti-tumoral activity (measured IC50) OPM2
Summary of the method: as §1

[4] = tested on: A498; assay: CellTiter-Blue cell-based survival/proliferation assay, A498; conditions: Homo sapiens; A498 kidney tumor cell line, 48 h
Summary of the method: as §1

[5] = tested on: HEP2; assay: CellTiter-Blue cell-based survival/proliferation assay, HEP2; conditions: Homo sapiens, HEp-2; HEP2 head & neck tumor cell line, 48 h
Summary of the method: as §1

[6] = tested on: HGC27; assay: CellTiter-Blue cell-based survival/proliferation assay, HGC27; conditions: Homo sapiens, HGC-27; HGC27 stomach tumor cell line, 48 h
Summary of the method: as §1

[7] = tested on: REC1; assay: CellTiter-Blue cell-based survival/proliferation assay, REC1; conditions: Homo sapiens, Lymphoma cell line REC1, 48 h, read-out: Anti-tumoral activity (measured IC50) REC1
Summary of the method: as §1

[8] = tested on: CLS354; assay: CellTiter-Blue cell-based survival/proliferation assay, CLS354; conditions: Homo sapiens, CLS-354; CLS354_4 head & neck tumor cell line, 48 h
Summary of the method: as §1

[9] = tested on: MDAMB231; assay: CellTiter-Blue cell-based survival/proliferation assay, MDAMB231; conditions: Homo sapiens, MDA-MB-231; MDAMB231 breast tumor cell line, 48 h
Summary of the method: as §1

[10] = tested on: HUT78; assay: CellTiter-Blue cell-based survival/proliferation assay, HUT78; conditions: Homo sapiens, Lymphoma cell line HUT78, 48 h, read-out: Anti-tumoral activity (measured IC50) HUT78
Summary of the method: as §1

[11] = tested on: MESSA; assay: CellTiter-Blue cell-based survival/proliferation assay, MESSA; conditions: Homo sapiens, MES-SA; MESSA ovary tumor cell line, 48 h
Summary of the method: as §1

[12] = tested on: TOV112D; assay: CellTiter-Blue cell-based survival/proliferation assay, TOV112D; conditions: Homo sapiens; TOV112D ovary tumor cell line, 48 h
Summary of the method: as §1

[13] = tested on: HL60; assay: CellTiter-Blue cell-based survival/proliferation assay, HL60; conditions: Homo sapiens, HL-60, Leukemia cell line HL60, 48 h, read-out: Anti-tumoral activity (measured IC50) HL60
Summary of the method: as §1

[14] = tested on: PANC1; assay: CellTiter-Blue cell-based survival/proliferation assay, PANC1; conditions: Homo sapiens, PANC-1; PANC_1 pancreas tumor cell line, 48 h
Summary of the method: as §1

[15] = tested on: PC3; assay: CellTiter-Blue cell-based survival/proliferation assay, PC3; conditions: Homo sapiens, PC-3; PC3 prostate tumor cell line, 48 h
Summary of the method: as §1

[16] = tested on: BT20; assay: CellTiter-Blue cell-based survival/proliferation assay, BT20; conditions: Homo sapiens, BT-20; BT20 breast tumor cell line, 48 h
Summary of the method: as §1

[17] = tested on: A375; assay: CellTiter-Blue cell-based survival/proliferation assay, A375; conditions: Homo sapiens, A-375; A375 melanoma cell line, 48 h
Protocol: as §2, §3

[18] = tested on: U118; assay: CellTiter-Blue cell-based survival/proliferation assay, U118; conditions: Homo sapiens; U118 glioblastoma cell line, 48 h
Protocol: as §2, §3

[19] = tested on: DU145; assay: CellTiter-Blue cell-based survival/proliferation assay, DU145; conditions: Homo sapiens, DU-145; DU145 prostate tumor cell line, 48 h
Summary of the method: as §1

[20] = tested on: BXPC3; assay: CellTiter-Blue cell-based survival/proliferation assay, BXPC3; conditions: Homo sapiens, BXPC-3; BXPC3 pancreas tumor cell line, 48 h
Summary of the method: as §1

[21] = tested on: KARPAS299; assay: CellTiter-Blue cell-based survival/proliferation assay, KARPAS299; conditions: Homo sapiens, KARPAS-299, Lymphoma cell line KARPAS299, 48 h, read-out: Anti-tumoral activity (measured IC50) KARPAS299
Summary of the method: as §1

[22] = tested on: HCT116; assay: CellTiter-Blue cell-based survival/proliferation assay, HCT116; conditions: Homo sapiens, HCT-116; HCT116 colorectal tumor cell line, 48 h
Summary of the method: as §1

[23] = tested on: U87MG; assay: CellTiter-Blue cell-based survival/proliferation assay, U87MG; conditions: Homo sapiens, U-87 MG; U87_MG glioblastoma cell line, 48 h
Protocol: as §2, §3

[24] = tested on: H1299; assay: CellTiter-Blue cell-based survival/proliferation assay, H1299; conditions: Homo sapiens, NCI-H1299; H1299 lung tumor cell line, 48 h
Summary of the method: as §1

[25] = tested on: SW579; assay: CellTiter-Blue cell-based survival/proliferation assay, SW579; conditions: Homo sapiens; SW579 head & neck tumor cell line, 48 h
Summary of the method: as §1

[26] = tested on: DLD1; assay: CellTiter-Blue cell-based survival/proliferation assay, DLD1; conditions: Homo sapiens, DLD-1; DLD_1 colorectal tumor cell line, 48 h
Summary of the method: as §1

[27] = tested on: PLCPRF5; assay: CellTiter-Blue cell-based survival/proliferation assay, PLCPRF5; conditions: Homo sapiens, PLC-PRF-5; PLC_PRF5 liver tumor cell line, 48 h
Summary of the method: as §1

[28] = tested on: A4513; assay: CellTiter-Blue cell-based survival/proliferation assay, A4513; conditions: Homo sapiens; A4513 Ewing cell line, 48 h
Protocol: as §2, §3

[29] = tested on: AGS; assay: CellTiter-Blue cell-based survival/proliferation assay, AGS; conditions: Homo sapiens; AGS stomach tumor cell line, 48 h
Summary of the method: as §1

[30] = tested on: HEPG2; assay: CellTiter-Blue cell-based survival/proliferation assay, HEPG2; conditions: Homo sapiens; HEPG2 liver tumor cell line, 48 h
Summary of the method: as §1

[31] = tested on: ACHN; assay: CellTiter-Blue cell-based survival/proliferation assay, ACHN; conditions: Homo sapiens; ACHN kidney tumor cell line, 48 h
Summary of the method: as §1

[32] = tested on: MELWO; assay: CellTiter-Blue cell-based survival/proliferation assay, MELWO; conditions: Homo sapiens; MEL_WO melanoma cell line, 48 h
Protocol: as §2, §3

[33] = tested on: A549; assay: CellTiter-Blue cell-based survival/proliferation assay, A549; conditions: Homo sapiens; A549 lung tumor cell line, 48 h
Summary of the method: as §1

Row | Compound | IC50 [1] [nM] | IC50 [2] [nM] | IC50 [3] [nM] | IC50 [4] [nM] | IC50 [5] [nM] | IC50 [6] [nM] | IC50 [7] [nM] | IC50 [8] [nM] | IC50 [9] [nM] | IC50 [10] [nM] | IC50 [11] [nM] | IC50 [12] [nM] | IC50 [13] [nM] | IC50 [14] [nM] | IC50 [15] [nM] | IC50 [16] [nM] | IC50 [17] [nM] | IC50 [18] [nM] | IC50 [19] [nM] | IC50 [20] [nM] | further results
1 | CCOCc1ccc(C)c(Nc2nc(-c3ccc(-n4ccnc4)cc3)cs2)c1 [Example 017, (5-Ethoxymethyl-2-methyl-phenyl)-[4-(4-imidazol-1-yl-phenyl)-thiazol-2-yl]-amine] | > 1000 | > 1000 | > 1000 | > 1000 | > 1000 | > 1000 | > 1000 | > 1000 | > 1000 | > 1000 | > 1000 | > 1000 | > 1000 | > 1000 | > 1000 | > 1000 | > 1000 | > 1000 | > 1000 | > 1000 | IC50 [21]: > 1000 nM; IC50 [22]: > 1000 nM; IC50 [23]: > 1000 nM; IC50 [24]: > 1000 nM; IC50 [25]: > 1000 nM; IC50 [26]: > 1000 nM; IC50 [27]: > 1000 nM; IC50 [28]: > 1000 nM; IC50 [29]: > 1000 nM; IC50 [30]: > 1000 nM; IC50 [31]: > 1000 nM; IC50 [32]: > 1000 nM; IC50 [33]: > 1000 nM
2 | CCOCc1ccc(C)c(Nc2ncc(-c3ccc(-n4cccn4)nc3)o2)c1 [Example 007, (5-Ethoxymethyl-2-methyl-phenyl)-[5-(6-pyrazol-1-yl-pyridin-3-yl)-oxazol-2-yl]-amine] | > 1000 | > 1000 | 100 to 500 | > 1000 | 100 to 500 | 100 to 500 | ≤ 100 | ≤ 100 | > 1000 | ≤ 100 | > 1000 | ≤ 100 | 100 to 500 | > 1000 | 100 to 500 | > 1000 | ≤ 100 | > 1000 | > 1000 | > 1000 | IC50 [21]: ≤ 100 nM; IC50 [22]: > 1000 nM; IC50 [23]: > 1000 nM; IC50 [24]: > 1000 nM; IC50 [25]: > 1000 nM; IC50 [26]: 500 to 1000 nM; IC50 [27]: > 1000 nM; IC50 [28]: 100 to 500 nM; IC50 [29]: ≤ 100 nM; IC50 [30]: > 1000 nM; IC50 [31]: 100 to 500 nM; IC50 [32]: > 1000 nM; IC50 [33]: > 1000 nM
3 | Cc1ccc(CO)cc1Nc1nc(-c2ccc(-n3cccn3)cc2)cs1 [Example 016, {4-Methyl-3-[4-(4-pyrazol-1-yl-phenyl)-thiazol-2-ylamino]-phenyl}-methanol] | > 1000 | > 1000 | > 1000 | > 1000 | > 1000 | > 1000 | > 1000 | > 1000 | > 1000 | > 1000 | > 1000 | > 1000 | > 1000 | > 1000 | > 1000 | > 1000 | > 1000 | > 1000 | > 1000 | > 1000 | IC50 [21]: > 1000 nM; IC50 [22]: > 1000 nM; IC50 [23]: > 1000 nM; IC50 [24]: > 1000 nM; IC50 [25]: > 1000 nM; IC50 [26]: > 1000 nM; IC50 [27]: > 1000 nM; IC50 [28]: > 1000 nM; IC50 [29]: > 1000 nM; IC50 [30]: > 1000 nM; IC50 [31]: > 1000 nM; IC50 [32]: > 1000 nM; IC50 [33]: > 1000 nM
